Like-named read-outs stand apart in the source and are kept apart here. Each block holds one compound with its values, some of them ahead of it.
How the values were obtained:
Caco-2 = details: Apical pH : Basolateral pH 7.4 : 7.4, Passive&Active, cited from earlier work
Caco-2 permeability = format: in vitro ADME; details: human, Apical pH : Basolateral pH 7.4 : 7.4, Passive&Active, Table S6 source 'Measured'
Procedure: Precipitation parameters, such as critical supersaturation ratio (CSC) and precipitation rate constant (PRC), were evaluated when precipitation occurs in the neutral intestinal environment after the mixture of solution and undissolved substance is transferred from the gastric chamber in vitro. These parameters were evaluated by fitting the two-stage dissolution profile according to the crystallization kinetics equations [28, 29, 30]. The absorption module of the PBPK models for rivaroxaban, ticagrelor, and PB-201 was developed using the Advanced Dissolution, Absorption and Metabolism (ADAM) model, which incorporates a mechanistic framework based on drug permeability and the diffusion layer model (DLM). The calibrated permeability of drugs, as determined using the Caco-2 Transwell model, was used to represent the permeability of drugs in vivo [31]. The particle size of the APIs used in the formulation development was incorporated into the Particle Population Balance (PPB) option. The full PBPK model, which includes the predicted steady-state distribution volume (Vss) and tissue-plasma partition coefficient (Kp), was utilized to describe the distribution characteristics of these compounds. The Kp scalar was estimated via sensitive analysis to match observed concentration-time (C-T) profiles. […]

CYP3A4 = CYP3A4 intrinsic clearance fitted in PBPK model; details: Fitted to clinical PK profiles
Description: (§1) S2. PBPK model development and validation physicochemical parameters for these three model drugs, including protein binding and Blood-to-Plasma (B/P) ratio, were obtained from experimental results, while log P and pKa were estimated based on the molecular formula using Gastro Plus ADMET software (version 10.3, […]
(§2) S2.1. Rivaroxaban PBPK model development and validation
S2.1.1. Rivaroxaban PBPK model development for metabolism and elimination module Given that the metabolic fractions of CYP3A4 and CYP2J2 to the systemic clearance of rivaroxaban were approximately 18% and 14% [1], respectively, and liver hydrolases contributed to about 14% of its systemic clearance, CLint_CYP3A4, CLint_CYP2J2 and CLHLM were fitted according to the metabolic fraction of rivaroxaban in vivo and concentration-time profiles from the SAD clinical trial in Caucasian subjects under fasted state. Considering that rivaroxaban was a substrate of P-gp transporter, and that about 36% and 7% of the parent drug were directly excreted by the kidney and liver, respectively, rivaroxaban may undergo active efflux through the kidney and liver in vivo [2]. Consequently, permeability-limited kidney and liver models were employed to account for the active efflux mechanism of P-gp for rivaroxaban. These models include both passive diffusion and active transport.
Clearances for passive diffusion in the kidney and liver was calculated using Equation S1 [5] and Equation S2 [6], respectively.
CL௉஽,௜ =2×P௔௣௣ × TSA௜ ሺS1ሻ where CLPD,i is the passive diffusion clearance of the drug in compartment i, Papp is the apparent permeability of the drug, and the TSAi is the regional tubular surface area of compartment i.
Log CL௉஽ =0.82×logD଻.ସ +0.5 ሺS2ሻ where CLPD is the passive diffusional clearance of APIs in the liver, and log D 7.4 is the oil-water partition coefficient at pH 7.4 [6] […]
Blood-to-plasma partition ratio 0.714 Measured
Fraction unbound in plasma 0.065 Measured […]
Caco-2(10-6cm/s) (Rivaroxaban) 8.103 Measured […]

[1] = ticagrelor metabolite; supplement ref 14; cited from earlier work
[2] = Additional hepatic/systemic clearance fitted in PBPK model
Description: as §1, §2
S2.1.1. Rivaroxaban PBPK model development for metabolism and elimination module […]
its systemic clearance, CLint_CYP3A4, CLint_CYP2J2 and CLHLM were fitted according to the metabolic fraction of rivaroxaban in vivo and concentration-time profiles from the SAD clinical trial in Caucasian subjects under fasted state. […]
permeability-limited kidney and liver models were employed to account for the active efflux […]
Physicochemical properties

[3] = active metabolite of ticagrelor; supplement ref 17; cited from earlier work

SMILES: COCCc1ccc(OCC(O)CNC(C)C)cc1 (centres unmarked) [Metoprolol]
- Caco-2 permeability (Caco-2; supplement ref 19): 15.0 10-6cm/s

- Papp (Caco-2 permeability): 29.4 ×10⁻⁶ cm/s
SMILES: CC(C)NCC(O)COc1cccc2ccccc12 (centres unmarked) [Propranolol]
- Caco-2 permeability (Caco-2; supplement ref 4): 31 10-6cm/s

- Intrinsic clearance of CYP 3A4 (CYP3A4): 6.000 µL/min/pmol
- Additional HLM CLint [2]: 5000 μL/min/mg protein
SMILES: CCCSc1nc(N[C@@H]2C[C@H]2c2ccc(F)c(F)c2)c2nnn([C@@H]3C[C@H](O)[C@@H](O)[C@H]3O)c2n1 [AR-C124910XX]
- Fraction unbound in plasma [1]: 0.002
- renal excretion [3]: about 0.04%

SMILES: CN/C(=N/CCSCc1nc[nH]c1C)NC#N [Cimetidine]
- Caco-2 permeability (Caco-2; supplement ref 4): 2.36 10-6cm/s

Reference: publication PMC11511194, “Key Factors for Improving Predictive Accuracy and Avoiding Overparameterization of the PBPK Absorption Model in Food Effect Studies of Weakly Basic Water-Insoluble Compounds in Immediate Release Formulations” (Pharmaceutics, 2024)
